The term inhibition denotes the change of the read-out against control, counted positive when it falls. Lower therefore signals little suppression.

The results in this text go back to patent US20230312562A1, “TETRAHYDRO-3H-PYRAZOLO QUINOLONE AND TETRAHYDRO-3H-PYRROLO[3,2-F]QUINOLINE -CONTAINING COMPOUNDS AND USES THEREOF” (Purdue Research Foundation, priority 2020, published 2023).

The subject of the first assay is MDA-MB-231. The assay can be described thus: Inhibition of MDA-MB-231 viability/growth at 1 μM, 72 h. It counts as cell-based. The settings on record: 1 μM compound, 72 h incubation.
In the case of `Nc1n[nH]c2ccc([C@@H]3Nc4ccc5[nH]nnc5c4[C@H]4C5CC[C@@H](C5)[C@@H]34)cc12` (stereo in doubt) [Compound 18, 5-(6,7,7a,8,9,10,11,11a-Octahydro-3H-8,11-methano[1,2,3]triazolo[4,5-a]phenanthridin-7-yl)-1H-indazol-3-amine], the “Inhibition of MDA-MB-231, result in words” value (from here on “Inhibition … in words”) is “loss in potency”.

Take `Cc1n[nH]c2ccc3c(c12)[C@H]1C2CC[C@@H](C2)[C@H]1[C@H](c1ccc2[nH]nc(N)c2c1)N3` (stereo in doubt) [Compound 20, 5-(1-Methyl-6,7,7a,8,9,10,11,11a-octahydro-3H-8,11-methanopyrazolo[4,3-a]phenanthridin-7-yl)-1H-indazol-3-amine]: the “Inhibition … in words” value is reported as “loss of potency”.

Turning to `Nc1n[nH]c2ccc([C@@H]3Nc4ccc5[nH]nc(F)c5c4[C@H]4C5CC[C@@H](C5)[C@@H]34)cc12` (stereo in doubt) [Compound 21, 5-(1-Fluoro-6,7,7a,8,9,10,11,11a-octahydro-3H-8,11-methanopyrazolo[4,3-a]phenanthridin-7-yl)-1H-indazol-3-amine], the “Inhibition … in words” value was “loss of potency”.

Turning to `Nc1n[nH]c2ccc([C@@H]3Nc4ccc5[nH]ncc5c4[C@H]4OCCO[C@H]43)cc12` (stereo in doubt) [Compound 33, 5-(2,3,4a,6,9,11c-Hexahydro-5H-[1,4]dioxino[2,3-c]pyrazolo[4,3-f]quinolin-5-yl)-1H-indazol-3-amine], the “Inhibition … in words” value is on record as “no activity”.

On to `Nc1n[nH]c2cc([C@@H]3Nc4c(Br)cc5[nH]ncc5c4[C@H]4[C@@H]5CC[C@@H](C5)[C@H]43)ccc12` (stereo in doubt) [Compound 25, 6-(5-Bromo-6,7,7a,8,9,10,11,11a-octahydro-3H-8,11-methanopyrazolo[4,3-a]phenanthridin-7-yl)-1H-indazol-3-amine], for which the “Inhibition … in words” value is “inactive”.

As to `Nc1n[nH]c2ccc([C@@H]3Nc4ccc5[nH]cnc5c4[C@H]4C5CC[C@@H](C5)[C@@H]34)cc12` (stereo in doubt) [Compound 19, 5-(6,7,7a,8,9,10,11,11a-Octahydro-3H-8,11-methanoimidazo[4,5-a]phenanthridin-7-yl)-1H-indazol-3-amine], the “Inhibition … in words” value was “loss in potency”.

As to `Nc1n[nH]c2cc([C@@H]3Nc4c(Cl)cc5[nH]ncc5c4[C@H]4[C@@H]5CC[C@@H](C5)[C@H]43)ccc12` (stereo in doubt) [Compound 24, 6-(5-Chloro-6,7,7a,8,9,10,11,11a-octahydro-3H-8,11-methanopyrazolo[4,3-a]phenanthridin-7-yl)-1H-indazol-3-amine], the “Inhibition … in words” value was “inactive”.

Still in this assay, the particulars now being: Homo sapiens, MDA-MB-231; 1 μM compound, 72 h incubation.
In turn, `O=C(Nc1n[nH]c2ccc([C@@H]3Nc4ccc5[nH]ncc5c4[C@H]4[C@@H]5CC[C@@H](C5)[C@H]43)cc12)C1CC1` (stereo in doubt) [Compound 28, N-(5-(6,7,7a,8,9,10,11,11a-octahydro-3H-8,11-Methanopyrazolo[4,3-a]phenanthridin-7-yl)-1H-indazol-3-yl)cyclopropanecarboxamide] showed an inhibition at 1 µM of 31%.

For the compound `Nc1n[nH]c2ccc(-c3nc4ccc5[nH]ncc5c4c4c3[C@H]3CC[C@@H]4C3)cc12` (stereo in doubt) [Compound 32, 5-(8,9,10,11-tetrahydro-3H-8,11-Methanopyrazolo[4,3-a]phenanthridin-7-yl)-1H-indazol-3-amine], the inhibition at 1 µM amounted to 19%.

`Fc1cnccc1[C@@H]1Nc2ccc3[nH]ncc3c2[C@H]2[C@@H]3CC[C@@H](C3)[C@H]21` (stereo in doubt) [Compound 7, 7-(3-Fluoropyridin-4-yl)-6,7,7a,8,9,10,11,11a-octahydro-3H-8,11-methanopyrazolo[4,3-a]phenanthridine]: the inhibition at 1 µM is 11%.

With `c1n[nH]cc1[C@@H]1Nc2ccc3[nH]ncc3c2[C@H]2[C@@H]3CC[C@@H](C3)[C@H]21` (stereo in doubt) [Compound 2, 7-(1H-Pyrazol-4-yl)-6,7,7a,8,9,10,11,11a-octahydro-3H-8,11-methanopyrazolo[4,3-a]phenanthridine], 1 µM produced 12% inhibition.

`Oc1ccc([C@@H]2Nc3ccc4[nH]ncc4c3[C@H]3C4CC[C@@H](C4)[C@@H]23)cc1` (stereo in doubt) [Compound 11, 4-(−6,7,7a,8,9,10,11,11a-Octahydro-3H-8,11-methanopyrazolo[4,3-a]phenanthridin-7-yl)phenol] returned an inhibition at 1 µM of 0%.

`c1csc([C@@H]2Nc3ccc4[nH]ncc4c3[C@H]3[C@@H]4CC[C@@H](C4)[C@H]32)c1` (stereo in doubt) [Compound 8, 7-(Thiophen-2-yl)-6,7,7a,8,9,10,11,11a-octahydro-3H-8,11-methanopyrazolo[4,3-a]phenanthridine] returned an inhibition at 1 µM of 13%.

`c1nc([C@@H]2Nc3ccc4[nH]ncc4c3[C@H]3[C@@H]4CC[C@@H](C4)[C@H]32)c[nH]1` (stereo in doubt) [Compound 4, 7-(1H-Imidazol-4-yl)-6,7,7a,8,9,10,11,11a-octahydro-3H-8,11-methanopyrazolo[4,3-a]phenanthridine]: the inhibition at 1 µM was 14%.

Take `c1cc2[nH]ncc2cc1[C@@H]1Nc2ccc3[nH]ncc3c2[C@H]2C3CC[C@@H](C3)[C@@H]12` (stereo in doubt) [Compound 16, 7-(1H-Indazol-5-yl)-6,7,7a,8,9,10,11,11a-octahydro-3H-8,11-methanopyrazolo[4,3-a]phenanthridine]: the inhibition at 1 µM was determined as 78%.

In turn, `Nc1ccc([C@@H]2Nc3ccc4[nH]ncc4c3[C@H]3[C@@H]4CC[C@@H](C4)[C@H]32)cn1` (stereo in doubt) [Compound 9, 5-(6,7,7a,8,9,10,11,11a-Octahydro-3H-8,11-methanopyrazolo[4,3-a]phenanthridin-7-yl)pyridin-2-amine] showed an inhibition at 1 µM of 18%.

With `Oc1ccc([C@@H]2Nc3ccc4[nH]ncc4c3[C@H]3C4CC[C@@H](C4)[C@@H]23)c(F)c1` (stereo in doubt) [Compound 14, 3-Fluoro-4-(6,7,7a,8,9,10,11,11a-octahydro-3H-8,11-methanopyrazolo[4,3-a]phenanthridin-7-yl)phenol], 1 µM produced 11% inhibition.

Take `FC(F)(F)c1n[nH]cc1[C@@H]1Nc2ccc3[nH]ncc3c2[C@H]2[C@@H]3CC[C@@H](C3)[C@H]21` (stereo in doubt) [Compound 1, 7-(3-(Trifluoromethyl)-1H-pyrazol-4-yl)-6,7,7a,8,9,10,11,11a-octahydro 3H-8,11-methanopyrazolo[4,3-a]phenanthridine]: the inhibition at 1 µM stood at 5%.

The compound `N#Cc1cc([C@@H]2Nc3ccc4[nH]ncc4c3[C@H]3[C@@H]4CC[C@@H](C4)[C@H]32)ccc1F` (stereo in doubt) [Compound 10, 2-Fluoro-5-(−6,7,7a,8,9,10,11,11a-octahydro-3H-8,11-methanopyrazolo[4,3-a]phenanthridin-7-yl)benzonitrile] yielded an inhibition at 1 µM of 3%.

For `FC(F)(F)c1ccc([C@@H]2Nc3ccc4[nH]ncc4c3[C@H]3[C@@H]4CC[C@@H](C4)[C@H]32)cc1` (stereo in doubt) [Compound 6, 7-(4-(Trifluoromethyl)phenyl)-6,7,7a,8,9,10,11,11a-octahydro-3H-8,11-methanopyrazolo[4,3-a]phenanthridine], 1 µM produced 21% inhibition.

Regarding `NC(=O)c1ccc([C@@H]2Nc3ccc4[nH]ncc4c3[C@H]3C4CC[C@@H](C4)[C@@H]23)cc1` (stereo in doubt) [Compound 12, 4-(6,7,7a,8,9,10,11,11a-Octahydro-3H-8,11-methanopyrazolo[4,3-a]phenanthridin-7-yl)benzamide], at 1 µM the inhibition was 17%.

As to `Cn1cc([C@@H]2Nc3ccc4[nH]ncc4c3[C@H]3[C@@H]4CC[C@@H](C4)[C@H]32)c(C(F)(F)F)n1` (stereo in doubt) [Compound 5, 7-(1-Methyl-3-(trifluoromethyl)-1H-pyrazol-4-yl)-6,7,7a,8,9,10,11,11a-octahydro-3H-8,11-methanopyrazolo[4,3-a]phenanthridine], the inhibition at 1 µM stood at 70%.

`Nc1nc2ccc([C@@H]3Nc4ccc5[nH]ncc5c4[C@H]4[C@@H]5CC[C@@H](C5)[C@H]43)cc2s1` [Compound 29, 6-(6,7,7a,8,9,10,11,11a-Octahydro-3H-8,11-methanopyrazolo[4,3-a]phenanthridin-7-yl)benzo[d]thiazol-2-amine] had an inhibition at 1 µM of 41%.

With `c1csc([C@@H]2Nc3ccc4[nH]ncc4c3[C@H]3[C@@H]4CC[C@@H](C4)[C@H]32)n1` (stereo in doubt) [Compound 3, 2-(6,7,7a,8,9,10,11,11a-Octahydro-3H-8,11-methanopyrazolo[4,3-a]phenanthridin-7-yl)thiazole], the inhibition at 1 µM amounted to 13%.

`Nc1n[nH]c2ccc([C@@H]3Nc4ccc5cn[nH]c5c4[C@H]4[C@@H]5CC[C@@H](C5)[C@H]43)cc12` (stereo in doubt) [Compound 31, 5-(6,7,7a,8,9,10,11,11a-Octahydro-1H-8,11-methanopyrazolo[3,4-a]phenanthridin-7-yl)-1H-indazol-3-amine]: the inhibition at 1 µM is 94%.

For `COc1cnccc1[C@@H]1Nc2ccc3[nH]ncc3c2[C@H]2C3CC[C@@H](C3)[C@@H]12` (stereo in doubt) [Compound 15, 7-(3-Methoxypyridin-4-yl)-6,7,7a,8,9,10,11,11a-octahydro-3H-8,11-methanopyrazolo[4,3-a]phenanthridine], 1 µM produced 12% inhibition.

As for `Nc1n[nH]c2cc([C@@H]3Nc4ccc5[nH]ncc5c4[C@H]4[C@@H]5CC[C@@H](C5)[C@H]43)ccc12` (stereo in doubt) [Compound 30, 6-(6,7,7a,8,9,10,11,11a-Octahydro-3H-8, 11-methanopyrazolo[4,3-a]phenanthridin-7-yl)-1H-indazol-3-amine], the inhibition at 1 µM is 29%.
